The test system of assay [1] is lipid rafts on Raji cells. Kind of assay: fluorescence microscopy colocalisation with lipid raft markers. The conditions noted are these: 60 min at 37C, APT2104 with endogenous CD59, APT2105 and APT070 with FITC-CTB. The assay is classed as cell-based.
The test system of the next assay is Raji cells. The assay can be described thus: confocal microscopy of intracellular localization. The assay is classed as cell-based. The conditions noted are these: confocal microscope, added singly or with raft markers. The method, then: For confocal microscopy, cells were treated with a variety of compounds and antibodies as described above. The cells were fixed and mounted as described and visualised using an Axiophot microscope (Carl Zeiss) coupled to a Colour Coolview CCD colour camera. Filter settings for the simultaneous detection of red and green fluorescence were used. The digital images were processed using Photoshop software (Adobe Systems). Cell images were obtained that visualised either the surface of the cell or cell sections.
This example follows the same procedure as described in example 13 with the following modifications. In certain experiments, lipid raft targeted compounds were added to the cells either singly, or in combination with other compounds. The compounds were then visualized with fluorescent antibodies or in the case of APT2104 and APT2105 by their intrinsic fluorescence, in each case using a confocal microscope as described in methods.

Assay [2] has as its system classical pathway-mediated haemolysis of sheep erythrocytes. The conditions noted are these: described in WO 98/02454; cited from earlier work.
Assay [3] has as its system complement-mediated lysis of guinea pig erythrocytes by human serum. The assay can be described thus: C5b6-initiated reactive lysis of erythrocytes. The assay is classed as cell-based. Conditions: reactive lysis assay. The method, then:
C56 euglobulin was an essential reagent that was used for the C5b6-initiated reactive lysis of erythrocytes. C56 euglobulin was generated in and purified from some acute-phase sera from post-trauma individuals (such as sports injuries, surgery or childbirth). Blood was drawn from donors in the acute phase of inflammation and allowed to clot at room temperature. To each 10 mls of serum, 0.5 mls of yeast suspension was added and the mixture incubated overnight on a rotator at room temperature. The serum was centrifuged to remove the yeast and dialysed against 0.02M Na/K phosphate, pH 5.4. The precipitate (containing the C56 euglobulin) was collected by centrifugation and redisolved in 0.01M Na/K phosphate/0.05M NaCl, pH7.0 containing 25% v/v glycerol.
Guinea pig erythrocytes (TCS Microbiological, UK) were washed twice in PBS and resuspended to 5% by volume in PBS/0.05% CHAPS. 50 microL of these cells were placed in the wells of a round-bottomed microtitre plate. Samples to be tested were diluted in PBS/0.05% CHAPS and 50 microL of these test solutions then added to the wells containing the guinea pig erythrocytes. The plate was then incubated at 37 degrees Celsius for 20 minutes to allow binding of the samples to the erythrocytes. […] 100 microL of the supernatant was transferred to a clear flat bottomed microtitre plate and the absorbance at 410 nm measured spectroscopically. […]

Assay [4] concerns complement-mediated lysis by human serum. The assay can be described thus: haemolytic assay (1:400 dilution of human serum). The assay is classed as cell-based. Conditions: read-out: concentration required to bring about 50% inhibition of lysis (IH50). The text has this:
APT530 is a protein that comprises the short consensus repeats 1,2,3 and 4 of human CD55 (decay accelerating factor, DAF), with a carboxyl terminal cysteine residue expressed in a recombinant form in E. coli cells. cDNA that encoded human DAF mRNA was generated from total brain RNA as described in Example 9. A plasmid to encode APT530 was generated by PCR using the pUC-DAF plasmid as template. Primers were designed to amplify the region of the DAF gene encoding amino acids 35-285 (SCR1-4). The 5′ primer incorporated an NdeI restriction enzyme site, and a codon specifying glutamine, thereby introducing an amino terminal methionine-glutamine amino acid pair. The 3′ primer added a carboxyl terminal cysteine residue and incorporated an EcoRI restriction enzyme site. The PCR product was cloned into the pUC57/T T-vector as described, sequenced, the insert excised with NdeI and EcoRI, and ligated into pET266 (Novagen, Madison, USA). The product of this ligation is the plasmid pET99-01, which expresses DAF (SCR1-4). pET99-01 DNA was introduced into E. coli HAMS113 (see methods) and expression of the recombinant protein induced as described in Example 1. The expression of APT530 was analysed by SDS-PAGE (described in methods). […] Refolded […] was analysed by SDSPAGE, Western blot and the effectiveness of the protein in a haemolytic assay (described in methods). […]

“Also recorded” adds a separate entry of the source.

This is an account of results in US20040043432A1, “Compounds targeted to cellular locations” (priority 2000, published 2004).

For “APT070: residues 1-196 of CR1 ([SCR1-3]-Cys) derivatised with myristoyl cationic peptide MSWP-1; WO 98/02454 example 8 [reference compound]”, in assay [1], the “co-localisation with lipid raft markers (FITC-CTB / endogenous CD59)” value (shortened to “co-localisation … (FITC-CTB / endogenous CD59)”) is reported as “co-localise; also recorded: discrete punctate pattern”. Further, the “intracellular localization (intracellular fluorescence)” value (“intracellular localization” below) in the assay on Raji cells is “intracellular fluorescence was seen”. Moreover, the “anti-complement activity, potency relative to [SCR1-3]-Cys” value in assay [2] is reported as 100-1000 fold. Consider “N-Myristoyl Gly-Ser-Ser-Lys-Ser-Pro-Ser-Lys-Lys-Lys-Lys-Lys-Lys-Pro-Gly-Glu-Cys(S-succinimido Alexafluor™546 C5)-NH2 [APT2105]”, for which the “co-localisation … (FITC-CTB / endogenous CD59)” value in assay [1] is given as “co-localise; also recorded: discrete punctate pattern”. In addition, in the assay with Raji cells, the “intracellular localization” value is reported as “intracellular fluorescence was seen”. Turning to “N-Myristoyl-Gly-Ser-Ser-Lys-Ser-Pro-Ser-Lys-Lys-Lys-Lys-Lys-Lys-Pro-Gly-Glu-Cys(S-succinimido Alexafluor™488 C5)-NH2 [APT2104]”, the “co-localisation … (FITC-CTB / endogenous CD59)” value in assay [1] is “co-localise; also recorded: discrete punctate pattern”. In addition, the “intracellular localization” value in the assay on Raji cells is “intracellular fluorescence was seen”.

B1: APT632: soluble CD59 from human urine (u-hCD59, Seq. ID No. 1) thiolated with 2-iminothiolane and linked to APT542 (conjugate, listed as Homo sapiens)
chain: LQCYNCPNPTADCKTAVNCSSDFDACLITKAGLQVYNKCWKFEHCNFNDVTTRLRENELTYYCCKKDLCNFNEQLEN
modifications: thiolated with 2-iminothiolane, linked to APT542
As to B1, in assay [3], the “concentration at which guinea pig erythrocytes are protected from complement-mediated lysis by human serum” value is listed as “greater than 0.5 nM”.

B2: APT2334: APT530 linked to a single molecule of APT542 (MSWP-1) (SEQ ID No: 11) (conjugate)
chain: MQDCGLPPDVPNAQPALEGRTSFPEDTVITYKCEESFVKIPGEKDSVICLKGSQWSDIEEFCNRSCEVPTRLNSASLKQPYITQNYFPVGTVVEYECRPGYRREPSLSPKLTCLQNLKWSTAVEFCKKKSCPNPGEIRNGQIDVPGGILFGATISFSCNTGYKLFGSTSSFCLISGSSVQWSDPLPECREIYCPAPPQIDNGIIQGERDHYGYRQSVTYACNKGFTMIGEHSIYCTVNNDEGEWSGPPPECRGCCDGPKKKKKKSPSKSSG
modifications: APT530 linked to APT542 (MSWP-1)
Take B2: in assay [4], the IC50 came to 0.2 nM.

B3: APT530: short consensus repeats 1,2,3 and 4 of human CD55 (DAF) with a carboxyl terminal cysteine, expressed in E. coli (SEQ ID No: 10) (protein)
chain: MQDCGLPPDVPNAQPALEGRTSFPEDTVITYKCEESFVKIPGEKDSVICLKGSQWSDIEEFCNRSCEVPTRLNSASLKQPYITQNYFPVGTVVEYECRPGYRREPSLSPKLTCLQNLKWSTAVEFCKKKSCPNPGEIRNGQIDVPGGILFGATISFSCNTGYKLFGSTSSFCLISGSSVQWSDPLPECREIYCPAPPQIDNGIIQGERDHYGYRQSVTYACNKGFTMIGEHSIYCTVNNDEGEWSGPPPECRGC
As for B3, in assay [4], the IC50 was about 40 nM.
